test system: MCL-1ΔNΔC; assay: High-throughput competitive FP binding screen, FITC-MCL-1 SAHB/MCL-1ΔNΔC interaction; settings: selectivity for MCL-1ΔNΔC over BCL-XLΔC targeting (BCL-XL % Bound minus MCL-1 % Bound)

Row | Spec Values | Compound
1 | 79.84 | Cc1ccc(C)n1-c1cc(Cl)ccc1C(=O)O
2 | 79.65 | O=C(OCc1ccc(F)cc1)c1cc(-c2ccco2)nc2ccccc12
3 | 75.38 | COC(=O)/C=C1/OC(c2ccc(Cl)cc2)=CC1=O
4 | 73.1 | CN1c2ccccc2C(C)(C)C12C=Cc1cc(O)ccc1O2 (stereo not drawn)
5 | 72.92 | COC(=O)c1cc(OC(=O)c2ccccc2Br)n(C)n1
6 | 72.31 | O=c1oc2ccccc2c2oc3cc(O)c(O)cc3c12
7 | 71.18 | Cc1cc2c(n1-c1ccc(C(=O)O)cc1)CCCC2
8 | 70.8 | Cc1occc1-c1nnc2sc(Cc3cccc4ccccc34)nn12
9 | 68.9 | CCOC(=O)c1cc(C#N)c(SCC(=O)c2cc3ccccc3oc2=O)[nH]c1=O
10 | 68.15 | CCN(CC)c1cc(C)c2cc(NC(=O)/C=C/c3ccco3)ccc2n1
11 | 67.48 | CCOC(=O)C(C)Oc1cccc2c(=O)n(CC(=O)Nc3ccc4c(c3)CCCO4)ccc12 (stereo not drawn)
12 | 66.25 | O=C(ON1C(=O)CCC1=O)c1ccc(Cl)cc1Cl

Further lines, the molecule ahead of its results:

Row | Compound | Spec Values
13 | O=C1C(Sc2nc[nH]n2)=C/C(=N/S(=O)(=O)c2cccs2)c2ccccc21 | 73.41
14 | Cc1ccc(NC(=S)Nc2ccc3nc(-c4ccco4)c(-c4ccco4)nc3c2)cc1 | 78.01
15 | Oc1ccc2cc3c4cc(Br)ccc4nc-3oc2c1O | 76.69
16 | O=C1/C(=C\C=C\c2ccco2)SC(=S)N1NCc1ccccc1O | 76.1
17 | O=C1CSCC(=O)N1c1csc(C(F)(F)F)c1-c1ccccc1 | 74.8
18 | [Na+].[Na+].[O-]c1c(Cl)cc(Cl)cc1Sc1cc(Cl)cc(Cl)c1[O-] | 73.22
19 | Oc1cccnc1NC(c1ccc(F)cc1)c1ccc2cccnc2c1O (stereo not drawn) | 71.24
20 | COc1ccc(C(=O)c2sc3cc(-c4ccco4)cc(C(F)(F)F)c3c2N)cc1OC | 70.97
21 | O=C(Nc1ccccc1)C(C(F)(F)F)C(F)(F)F | 70.63
22 | CC1CCN(C2=NN3C(=N)/C(=C\c4ccc(SCc5ccco5)o4)C(=O)N=C3S2)CC1 | 70.38
23 | CCCCn1nnnc1COC(=O)/C(C#N)=C/c1ccc(N(C)C)cc1 | 70.27
24 | O=C1NC(=O)/C(=C/c2ccc(-c3ccc(S(=O)(=O)N4CCOCC4)cc3)o2)S1 | 69.33
25 | Cc1ccc2[nH]c3nc(=S)[nH]nc3c2c1 | 69.2
26 | N#CC1=C(c2ccc(Cl)cc2)C2CSc3ccccc3C2NC1=O (stereo not drawn) | 68.29
27 | Cc1ccc2c(c1C)NC(C(=O)O)C1CC=CC21 (stereo not drawn) | 68.3
28 | N#CC1=C(S)NC(=O)C(C#N)C12CCCCC2 (stereo not drawn) | 67.9
29 | COc1cc2c(O)c3c(c(-c4ccc5c(c4)OCO5)c2cc1OC)C(=O)OC3 | 66.63
30 | Cn1cc2c(n1)-c1cc(Cl)ccc1SC2 | 66.16
31 | CCOC(=O)c1cc(CC)sc1NC(=O)C=C(C)C | 66

target: BCL-XLΔC (Homo sapiens, UniProt Q07817); assay: High-throughput competitive FP binding screen, FITC-BAD BH3/BCL-XLΔC interaction; settings: FITC-BAD BH3/BCL-XLΔC interaction pair, competitive FP screen
Sequence (Q07817 1-212 limits assumed, stated change not applied): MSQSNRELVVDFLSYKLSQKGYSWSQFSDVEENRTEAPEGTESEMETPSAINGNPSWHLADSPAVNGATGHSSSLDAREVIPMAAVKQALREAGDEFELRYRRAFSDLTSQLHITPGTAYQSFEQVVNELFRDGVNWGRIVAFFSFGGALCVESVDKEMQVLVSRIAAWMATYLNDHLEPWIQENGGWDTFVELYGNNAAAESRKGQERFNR

Row | BCL-XL % Bound [%] | Compound
32 | 75.93 | Cc1ccc(C)n1-c1cc(Cl)ccc1C(=O)O
33 | 101.6 | O=C(OCc1ccc(F)cc1)c1cc(-c2ccco2)nc2ccccc12
34 | 97.17 | COC(=O)/C=C1/OC(c2ccc(Cl)cc2)=CC1=O
35 | 111 | CN1c2ccccc2C(C)(C)C12C=Cc1cc(O)ccc1O2 (stereo not drawn)
36 | 103.1 | COC(=O)c1cc(OC(=O)c2ccccc2Br)n(C)n1
37 | 84.9 | O=c1oc2ccccc2c2oc3cc(O)c(O)cc3c12
38 | 65.33 | Cc1cc2c(n1-c1ccc(C(=O)O)cc1)CCCC2
39 | 129.5 | Cc1occc1-c1nnc2sc(Cc3cccc4ccccc34)nn12
40 | 100.2 | CCOC(=O)c1cc(C#N)c(SCC(=O)c2cc3ccccc3oc2=O)[nH]c1=O
41 | 79.88 | CCN(CC)c1cc(C)c2cc(NC(=O)/C=C/c3ccco3)ccc2n1
42 | 102 | CCOC(=O)C(C)Oc1cccc2c(=O)n(CC(=O)Nc3ccc4c(c3)CCCO4)ccc12 (stereo not drawn)
43 | 96.73 | O=C(ON1C(=O)CCC1=O)c1ccc(Cl)cc1Cl

Second part, the molecule before the results:

Row | Compound | BCL-XL % Bound [%]
44 | O=C1C(Sc2nc[nH]n2)=C/C(=N/S(=O)(=O)c2cccs2)c2ccccc21 | 93.16
45 | Cc1ccc(NC(=S)Nc2ccc3nc(-c4ccco4)c(-c4ccco4)nc3c2)cc1 | 75.97
46 | Oc1ccc2cc3c4cc(Br)ccc4nc-3oc2c1O | 90.07
47 | O=C1/C(=C\C=C\c2ccco2)SC(=S)N1NCc1ccccc1O | 95.8
48 | O=C1CSCC(=O)N1c1csc(C(F)(F)F)c1-c1ccccc1 | 96.35
49 | [Na+].[Na+].[O-]c1c(Cl)cc(Cl)cc1Sc1cc(Cl)cc(Cl)c1[O-] | 100.4
50 | Oc1cccnc1NC(c1ccc(F)cc1)c1ccc2cccnc2c1O (stereo not drawn) | 113.7
51 | COc1ccc(C(=O)c2sc3cc(-c4ccco4)cc(C(F)(F)F)c3c2N)cc1OC | 85.27
52 | O=C(Nc1ccccc1)C(C(F)(F)F)C(F)(F)F | 82.61
53 | CC1CCN(C2=NN3C(=N)/C(=C\c4ccc(SCc5ccco5)o4)C(=O)N=C3S2)CC1 | 84.68
54 | CCCCn1nnnc1COC(=O)/C(C#N)=C/c1ccc(N(C)C)cc1 | 62.97
55 | O=C1NC(=O)/C(=C/c2ccc(-c3ccc(S(=O)(=O)N4CCOCC4)cc3)o2)S1 | 107.9
56 | Cc1ccc2[nH]c3nc(=S)[nH]nc3c2c1 | 107.9
57 | N#CC1=C(c2ccc(Cl)cc2)C2CSc3ccccc3C2NC1=O (stereo not drawn) | 87.67
58 | Cc1ccc2c(c1C)NC(C(=O)O)C1CC=CC21 (stereo not drawn) | 82.8
59 | N#CC1=C(S)NC(=O)C(C#N)C12CCCCC2 (stereo not drawn) | 107.0
60 | COc1cc2c(O)c3c(c(-c4ccc5c(c4)OCO5)c2cc1OC)C(=O)OC3 | 104.6
61 | Cn1cc2c(n1)-c1cc(Cl)ccc1SC2 | 89.61
62 | CCOC(=O)c1cc(CC)sc1NC(=O)C=C(C)C | 90.12

target: MCL-1ΔNΔC (Homo sapiens, UniProt Q07820); assay: High-throughput competitive FP binding screen, FITC-MCL-1 SAHB/MCL-1ΔNΔC interaction; set-up: the C-terminal alpha-helix was deleted from each of these constructs; GST (N, cleaved yes); made in house; settings: FITC-MCL-1 SAHB/MCL-1ΔNΔC interaction pair, competitive FP screen
Sequence (Q07820 172-320 limits assumed, stated change not applied): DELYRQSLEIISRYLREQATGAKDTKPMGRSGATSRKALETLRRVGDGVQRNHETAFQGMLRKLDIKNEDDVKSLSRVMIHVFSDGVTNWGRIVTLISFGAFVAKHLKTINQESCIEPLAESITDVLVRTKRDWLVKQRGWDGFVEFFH

Row | MCL-1% Bound [%] | Compound
63 | −3.914 | Cc1ccc(C)n1-c1cc(Cl)ccc1C(=O)O
64 | 21.94 | O=C(OCc1ccc(F)cc1)c1cc(-c2ccco2)nc2ccccc12
65 | 21.79 | COC(=O)/C=C1/OC(c2ccc(Cl)cc2)=CC1=O
66 | 37.92 | CN1c2ccccc2C(C)(C)C12C=Cc1cc(O)ccc1O2 (stereo not drawn)
67 | 30.23 | COC(=O)c1cc(OC(=O)c2ccccc2Br)n(C)n1
68 | 12.59 | O=c1oc2ccccc2c2oc3cc(O)c(O)cc3c12
69 | −5.85 | Cc1cc2c(n1-c1ccc(C(=O)O)cc1)CCCC2
70 | 58.7 | Cc1occc1-c1nnc2sc(Cc3cccc4ccccc34)nn12
71 | 31.28 | CCOC(=O)c1cc(C#N)c(SCC(=O)c2cc3ccccc3oc2=O)[nH]c1=O
72 | 11.73 | CCN(CC)c1cc(C)c2cc(NC(=O)/C=C/c3ccco3)ccc2n1
73 | 34.53 | CCOC(=O)C(C)Oc1cccc2c(=O)n(CC(=O)Nc3ccc4c(c3)CCCO4)ccc12 (stereo not drawn)
74 | 30.48 | O=C(ON1C(=O)CCC1=O)c1ccc(Cl)cc1Cl

The remaining lines, values behind:

Row | Compound | MCL-1% Bound [%]
75 | O=C1C(Sc2nc[nH]n2)=C/C(=N/S(=O)(=O)c2cccs2)c2ccccc21 | 19.75
76 | Cc1ccc(NC(=S)Nc2ccc3nc(-c4ccco4)c(-c4ccco4)nc3c2)cc1 | −2.047
77 | Oc1ccc2cc3c4cc(Br)ccc4nc-3oc2c1O | 13.37
78 | O=C1/C(=C\C=C\c2ccco2)SC(=S)N1NCc1ccccc1O | 19.8
79 | O=C1CSCC(=O)N1c1csc(C(F)(F)F)c1-c1ccccc1 | 21.55
80 | [Na+].[Na+].[O-]c1c(Cl)cc(Cl)cc1Sc1cc(Cl)cc(Cl)c1[O-] | 27.2
81 | Oc1cccnc1NC(c1ccc(F)cc1)c1ccc2cccnc2c1O (stereo not drawn) | 42.49
82 | COc1ccc(C(=O)c2sc3cc(-c4ccco4)cc(C(F)(F)F)c3c2N)cc1OC | 14.29
83 | O=C(Nc1ccccc1)C(C(F)(F)F)C(F)(F)F | 11.98
84 | CC1CCN(C2=NN3C(=N)/C(=C\c4ccc(SCc5ccco5)o4)C(=O)N=C3S2)CC1 | 14.3
85 | CCCCn1nnnc1COC(=O)/C(C#N)=C/c1ccc(N(C)C)cc1 | −7.306
86 | O=C1NC(=O)/C(=C/c2ccc(-c3ccc(S(=O)(=O)N4CCOCC4)cc3)o2)S1 | 38.57
87 | Cc1ccc2[nH]c3nc(=S)[nH]nc3c2c1 | 38.65
88 | N#CC1=C(c2ccc(Cl)cc2)C2CSc3ccccc3C2NC1=O (stereo not drawn) | 19.37
89 | Cc1ccc2c(c1C)NC(C(=O)O)C1CC=CC21 (stereo not drawn) | 14.6
90 | N#CC1=C(S)NC(=O)C(C#N)C12CCCCC2 (stereo not drawn) | 39.1
91 | COc1cc2c(O)c3c(c(-c4ccc5c(c4)OCO5)c2cc1OC)C(=O)OC3 | 37.92
92 | Cn1cc2c(n1)-c1cc(Cl)ccc1SC2 | 23.45
93 | CCOC(=O)c1cc(CC)sc1NC(=O)C=C(C)C | 24.13
